The values below come from US20050031540A1, “Visco dye” (priority 2001, published 2005).

Data set [1] has as its system anterior capsule of the crystalline lens. The data set is described as follows: Vital dye staining of the anterior lens capsule to visualise the CCC. The following applies: absence of a red fundus reflex. An excerpt:
It is possible to use a number of vital dyes already known today, but also such which may become available in the future as the visualising agent. […] These include azophlozin, basic blue, Bismarck brown, basis red, bengal red, brilliant cresyl blue, eosin, fluorescein, gentian violet, indocyanine green, Janus green, methylene green, methylene blue, neutral red and others.

Data set [2] relates to corneal endothelial cells. Particulars: earlier use to stain corneas prior to corneal transplants; cited from earlier work.

Regarding `Cc1cc(-c2ccc(/N=N/c3c(S(=O)(=O)O)cc4cc(S(=O)(=O)O)cc(N)c4c3O)c(C)c2)ccc1/N=N/c1c(S(=O)(=O)O)cc2cc(S(=O)(=O)O)cc(N)c2c1O` [trypan blue], the “staining of the anterior capsule sufficient to visualise the CCC” value (shortened to “staining … to visualise the CCC”) in data set [1] (dye 0.1%) is recorded as “stained the anterior capsule sufficiently to visualise the CCC”. Moreover, in data set [2], the “tolerance of corneal endothelium to vital staining, endothelial cell counts” value was “without a reduction in endothelial cell counts”.

In the case of `CN(C)c1ccc2nc3ccc(=[N+](C)C)cc-3sc2c1` [methylene blue], the “staining … to visualise the CCC” value in data set [1] (dye 5%) is on record as “stained the anterior capsule sufficiently to visualise the CCC”.

On to brilliant cresyl blue, for which, in data set [1] (dye 1%), the “staining … to visualise the CCC” value was “stained the anterior capsule sufficiently to visualise the CCC”.

With `CN(C)c1ccc(C(=C2C=CC(=[N+](C)C)C=C2)c2ccc(N(C)C)cc2)cc1` [gentian violet], the “staining … to visualise the CCC” value in data set [1] (dye 2%) was “stained the anterior capsule sufficiently to visualise the CCC”.
